Results reported in patent publication US20090156477A1, “Compositions and Methods for Regulating Inflammatory Responses” (Massachusetts Institute of Technology, priority 2005, published 2009).

Columns and labels:
Caco-2 cells = test: Transepithelial resistance (TER) of Caco-2 monolayers; type: cell-based, human; settings: for inhibited TER increases: 100 ng/ml ligand, three days (72 hours) after addition, percent reduction in TER compared to PBS treated cells; for time after treatment at which reductions in TER were evident: Caco-2 monolayers, TER followed over 48 hours; for reduced resistance on day 5: ligand added on day 0 and day 2, compared to untreated cells
Method: Caco-2 cells were grown close to confluence, and T84 cells were grown to confluence. The apical chambers of transwell plates with 6.5 mm diameter and 3 μm pore size filters were pretreated with 50 μl of 45 μg/ml collagen IV in 60% ethanol 24 hours prior to plating and incubated overnight at room temperature. After reaching confluence, cells were washed with 20 ml PBS and treated with 3.5 ml trypsin-EDTA per 175 cm^2 flask for 20-60 min at 37° C. until cells detached. Cells were resuspended in 16.5 ml media appropriate to the cell type. Each apical chamber was supplemented with 82 μl cell solution. The basolateral chamber was filled with 1 ml propagation media. Filters were fed with new media every two days over the course of experiments.
Caco-2 and T84 cells were allowed to grow on transwells to form monolayers. Monolayer formation was examined every other day by light microscopy as well as by transepithelial resistance (TER) measurements using an EVOM ohmmeter (World Precision Instruments, Sarasota, Fla.). After monolayer formation, cells were treated with 100 ng/ml FGF1, 100 ng/ml FGF2, 100 ng/ml FGF7 or an equivalent volume (10 μl) of PBS. TER measurements were made either after 72 hours or at each of the 30 minutes, 1 hour, 2 hours, 4 hours, 9 hours, 24 hours and 48 hours timepoints. To determine the effects of multiple additions of ligand, FGFs or PBS were added initially and again after 2 days, and TER measurements were made after 0, 2 and 5 days.
To probe the mechanism by which various FGFs induced cell mediated effects, various media treatments were employed. Ammonium tetrathiomolybdate (TM) was added 24 hours prior to the addition of ligands to yield a final concentration of 200 μM, sufficient to prevent the release of FGF1 [3]. Similarly, sodium chlorate, which reduces cell HSPGs and the sulfation of associated HSGAGs, was added 24 hours prior to the addition of ligands to yield a final concentration of 50 mM [33,34]. Antibodies and kinase inhibitors were added immediately prior to ligands. Antibodies to FGF1, FGFR1 and FGFR3 were added at a 1:100 dilution. Kinase inhibitors were added to yield final concentrations of 50 μM LY294002, 20 μM PD98059, 1 μM SB203580. All experiments were performed in triplicate.
Caco-2 cells were grown to just prior to confluency. The apical chambers of transwell plates with 6.5 mm diameter and 3 μm pore size filters were pretreated with 50 μl of 45 μg/ml mouse recombinant collagen IV (BD Biosciences, Bedford, Mass.) in 60% ethanol 24 hours prior to plating. Plates were incubated overnight at room temperature. Just prior to confluency, cells were washed with 20 ml phosphate buffered saline (PBS) and treated with 3.5 ml trypsin-EDTA per 175 cm^2 flask for 20-60 min at 37° C., until cells detached. Cells were resuspended in 16.5 ml media appropriate to the cell type. Each apical chamber was supplemented with 82 μl cell solution. The basolateral chamber was filled with 1 ml propagation media. Filters were fed with new media every two days over the course of experiments.
Caco-2 cells were allowed to grow on transwells to form monolayers. Monolayer formation was examined every other day by light microscopy as well as by TER measurements using an EVOM ohmmeter (World Precision Instruments, Sarasota, Fla.). After monolayer formation, cells were treated with 100 ng/ml recombinant human FGF1 (Amgen, Thousand Oaks, Calif.), 100 ng/ml recombinant human FGF2 [1], 100 ng/ml recombinant human FGF7 (Sigma, St. Louis, Mo.), or an equivalent volume (10 μl) of PBS. TER measurements were made after each of 30 minutes, 1 hour, 2 hours, 4 hours, 9 hours, 24 hours and 48 hours.
To probe the mechanism by which various FGFs induced cellular mediated effects, various media treatments were employed. TM was added 24 hours prior to the addition of ligands to yield a final concentration of 200 μM, sufficient to prevent the release of FGF1 [3]. […]

Wnt1 = test: RT-PCR expression in Caco-2 cells after FGF treatment: Wnt1; type: cell-based, human; settings: normalized to PBS treatment, defined as 1.0
Text: Five μg of total RNA was isolated from Caco-2 cells using Trizol reagent (Life Tech, Rockville, Md.) followed by reverse transcription with random hexamers. Specific oligomers were designed based on published sequences in order to detect the expression of specific human Wnt, Fz and syndecan isoforms. Sequences of primer pairs were as follows: Wnt-1: 5′-CACGACCTCGTCTACTTCGAC-3′ (SEQ ID NO: 17) and 5′-ACAGACACTCGTGCAGTACGC-3′ (SEQ ID NO: 18); Wnt-2: 5′-CATGGTGGTACATGAGAGCTAC-3′ (SEQ ID NO: 19) and 5′-GGCAAATACAACTCCAGCTGAG-3′ (SEQ ID NO: 20); Wnt-3: 5′-GAGAGCCTCCCCGTCCACAG-3′ (SEQ ID NO: 21) and 5′-CTGCCAGGAGTGTATTCGCATC-3′ (SEQ ID NO: 22); Wnt-3a: 5′-CAGGAACTACGTGGAGATCATG-3′ (SEQ ID NO: 23) and 5′-CCATCCCACCAAACTCGATGTC-3′ (SEQ ID NO: 24); Fz-1: 5′-GAACTTTCCTCCAACTTCATGGC-3′ (SEQ ID NO: 25) and 5′-CATTTCCATTTTACAGACCGG-3′ (SEQ ID NO: 26); Fz-2: 5′-GGTGAGCCAGCACTGCAAGAG-3′ (SEQ ID NO: 27) and 5′-CCTAAAAGTGAAATGGTTTCGATCG-3′ (SEQ ID NO: 28); Fz-10: 5′-ACACGTCCAACGCCAGCATG-3′ (SEQ ID NO: 29) and 5′-ACGAGTCATGTTGTAGCCGATG-3′ (SEQ ID NO: 30); and Syndecan-1/Sdc-1/CD138: 5′-CTTCACACTCCCCACACAGA-3′ (SEQ ID NO: 31) and 5′-TCCTGTTTGGTGGGCTTCTG-3′ (SEQ ID NO: 32). To control for total cell […], RT-PCR was also performed on β-actin using the primers 5′-GCCAGCTCACCATGGATGATGATAT-3′ (SEQ ID NO: 33) and 5′-GCTTGCTGATCCACATCTGCTGGAA-3′ (SEQ ID NO: 34). PCR was performed using the Advantage-GC cDNA kit from Clontech as per manufacturer's instructions (Palo Alto, Calif.).

Row | Molecule | inhibited TER increases (Caco-2 cells; Caco-2 cells) [%] | reduced TER at 48 hours (Caco-2 cells; Caco-2 cells, 100 ng/ml, 48 hours) [%] | effect of added agent on FGF-induced reduction in TER (Caco-2 cells; Caco-2 cells, agent given before or with 100 ng/ml FGFs (TM 200 μM, sodium chlorate 50 mM, LY294002 50 μM, PMA 100 ng/ml, antibodies 1:100)) | reduction of TER in TM treated cells (Caco-2 cells; Caco-2 monolayers pretreated with 200 μM TM, all time points beginning at 4 hours) | reduction of TER with the addition of heparin (Caco-2 cells; Caco-2 monolayers pretreated with 50 mM sodium chlorate, heparin 500 ng/ml with ligands, vs PBS) | time after treatment at which reductions in TER were evident (Caco-2 cells; 100 ng/ml) [h] | Wnt1 expression (intensity of RT-PCR images) (Wnt1) | reduced resistance on day 5 (Caco-2 cells; Caco-2 cells) [%]
1 | FGF1: Recombinant human FGF1 from Amgen | 35.1±12.3 | 45.1±5.2 | restored the ability of FGF2 and FGF7 to reduce TER | still elicited significant reductions in TER | reduced TER compared to PBS | 2 | 2.2 | 
2 | FGF2: Recombinant human FGF2, produced as described | 67.2±25.8 |  |  |  |  | 4 | 2.7 | 43.6±11.1
3 | FGF7: Recombinant human FGF7 from Sigma (protein, UniProt P21781 32-194, looked up) Fibroblast growth factor 7: CNDMTPEQMATNVNCSSPERHTRSYDYMEGGDIRVRRLFCRTQWYLRIDKRGKVKGTQEMKNNYNIMEIRTVAVGIVAIKGVESEFYLAMNKEGKLYAKKECNEDCNFKELILENHYNTYASAKWTHNGGEMFVALNQKGIPVRGKKTKKEQKTAHFLPMAIT | 61.4±17.3 |  |  |  |  | 4 | 5.1 | 44.4±8.7
